Test results taken from paper PMC8950706, “Influence of Substitutions in the Binding Motif of Proline-Rich Antimicrobial Peptide ARV-1502 on 70S Ribosome Binding and Antimicrobial Activity” (International Journal of Molecular Sciences, 2022).
Converted amounts (≈) assume the structure as drawn. Marks after values point to notes of the source that are not given here. Square brackets hold non-standard residues; d marks the D form. Ends that are not written are not given here. Peptide text beside a SMILES is read from it. Ac6c = NC1(C(=O)O)CCCCC1

Experiments:
[1] = tested on: E. coli BW25113; assay: MIC, liquid broth micro dilution, wild type; format: cell-based, Escherichia coli; conditions: for Minimal Inhibitory Concentration, 25% MHB2, wt / Minimal Inhibitory Concentration, 33% TSB, wt: BW25113, 20 h
Procedure: MIC values were determined using a liquid broth micro dilution assay in sterile 96-well plates (polystyrene F-bottom, Greiner Bio-One GmbH) and a total volume of 100 μL per well. Aqueous peptide solutions (10 g/L) were serially twofold diluted in 25% Mueller-Hinton broth 2 (25% MBH2) or 33% tryptic soy broth (33% TSB) starting at a peptide concentration of 128 mg/L (50 μL/well). Overnight cultures of bacteria grown in 25% MHB2 (or 33% TSB) were diluted 30-fold in 25% MHB2 (or 33% TSB). After an incubation period of 4 h (37 °C, 200 rpm), cells were diluted to 1.5 × 10^7 cfu/mL, based on a McFarland test, and 50 μL were added to each well (final concentration of 7.5 × 10^6 […]). The plates were incubated (37 °C, 20 h) and the optical density was recorded at 595 nm using a microplate reader ([…]^TM, Beckmann Coulter). The MIC was defined as the lowest peptide concentration preventing visible bacterial growth.

[2] = tested on: E. coli 70S ribosome; assay: Competitive FP binding screening assay with Cf-ARV-1502 (relative FP); design: species or system E. coli BW25113; conditions: for Inhibition of Cf-ARV-1502 binding to the 70S ribosome (in words): Figure 3: peptide concentration 1.2 µmol/L; for Ribosome Binding (%): competitive ribosome binding against Cf-ARV-1502 (relative FP; values match 1.2 µmol/L peptide), low value = strong competition
Procedure: E. coli 70S ribosomes were prepared using a previously described protocol that was slightly modified. Briefly, E. coli BW25113 was cultivated in Luria-Bertani (LB) medium and cells were harvested after reaching an optical density of ~4 at 600 nm by centrifugation (5000× g, 15 min, 4 °C, Rotor JLA 8.100, Avanti J-20 XP, Beckmann Coulter, Krefeld, Germany). The cell pellets were frozen and stored at −80 °C. Cells were resuspended in ribosome buffer (2 mL/g cells; 20 mmol/L HEPES-KOH, 6 mmol/L MgCl2, 30 mmol/L NH4Cl, 4 mmol/L 2-mercaptoethanol, pH 7.6). Lysozyme (0.25 g/L cell suspension) was added, and the mixture was incubated on ice for 30 min. Cells were disrupted using the bead mill homogenizer FastPrep-24™ 5G (40 s, 4 m/s, 6 cycles, MP Biomedicals Germany GmbH, Eschwege, Germany) and zirconia/silica beads (0.1 mm diameter). The lysate was centrifuged (1500× g, 5 min, 4 °C, Rotor S4180, Allegra 21R, Beckmann Coulter) and the supernatant was incubated with DNase (5 U/mL) on ice for 60 min. The cell debris was removed by two centrifugation steps (16,000× g, 30 min, 4 °C followed by 32,000× g, 60 min, 4 °C, Rotor JA 30.50 Ti, Avanti J-30I, Beckmann Coulter). The ribosome was pelleted by ultracentrifugation (165,000× g, 17 h, 4 °C, Rotor 70 Ti, Optima LE-80K, Beckmann Coulter), resuspended in ribosome buffer (0.1 mL/g pellet), and stored at −80 °C. The ribosome concentration was determined by recording the absorbance of RNA at 260 nm (NanoPhotometer NP80, Implen GmbH, München, Germany) assuming that 1 AU corresponds to a ribosome concentration of 28 nmol/L. The molecular weight of the E. coli 70S ribosome was assumed to be 2.3 MDa.
E. coli 70S ribosomes and Cf-ARV-1502 were incubated with four different concentrations of unlabeled peptides chosen based on the IC50 curves of reference peptide ARV-1502. Each peptide was diluted in ribosome buffer to obtain a concentration of 4.8 µmol/L and transferred to a 384-well-plate. Peptides were then twofold serially diluted in four steps from 4.8 to 0.6 µmol/L (20 µL). The ribosome extract was diluted in ribosome buffer to reach a concentration of 2 µmol/L and 10 µL were added to each well to obtain a final ribosome concentration of 0.5 µmol/L. Plates were centrifuged (2 min, 500× g, Rotor S2096, Allegra^TM 21R, Beckmann Coulter) and incubated at 28 °C for 90 min. Cf-labeled ARV-1502 was added (10 µL; final concentration of 20 nmol/L) and the plates were again centrifuged and incubated (28 °C, 90 min). After incubation, fluorescence polarization was recorded on a […]^TM microplate reader (λex = 485 nm, λem = 535 nm).
On each plate 12 minimum (30 µL ribosome buffer and 10 µL Cf-ARV-1502) and 12 maximum (20 µL ribosome buffer, 10 µL ribosome solution and 10 µL Cf-ARV-1502) control samples were added. Fluorescence polarization of screening samples was normalized to the fluorescence polarization of these control samples. All screening samples were measured in triplicates and the whole experiment was repeated once on another day.

[3] = tested on: E. coli 70S ribosome; assay: Cell-free GFP expression assay (in vitro translation); format: biochemical; conditions: for In Vitro Translation (%): GFP expression remaining relative to control, concentration not given (higher concentration 50 µmol/L); for Reduction of GFP expression, 50 µmol/L peptide: cell-free expression, peptide-to-ribosome ratio of 25, GFP fluorescence, 37 °C
Excerpt: Possible effects of ARV-1502 and its substituted analogs on the in vitro translation of the green fluorescent protein (GFP) were probed using the NEB PureExpress Delta RF123 Kit (New England Biolabs, Ipswich, MA, USA). The sfGFP DNA template was amplified from pY71sfGFP plasmid by PCR introducing an UAA stop codon. Release factor 1 (RF1) was 50fold diluted in Pure System Buffer (PSB) containing magnesium acetate (1 mol/L), monopotassium phosphate (0.5 mol/L, pH 7.3), potassium glutamate (1 mol/L), NH4Cl (1 mol/L), calcium chloride (0.5 mol/L), spermidine (1 mol/L), putrescine (0.1 mol/L), and DTT (0.1 mol/L). Each reaction used 35 ng of sfGFP template. Peptides were added at a final concentration of 5 µmol/L and 50 µmol/L. The reaction was started by adding Kit solutions A (2 µL) and B (1.5 µL), diluted RF1 (0.5 µL), sfGFP template (0.25 µL or water as negative control), PSB (0.25 µL), and peptide (0.5 µL or water), mixed, transferred into a black 384-well plate (flat bottom, Greiner Bio-One GmbH), and incubated (37 °C, 2 h). The fluorescence was recorded every 10 min (λexc = 485 nm, λem = 535 nm) in a microplate reader (Gemini EM, Molecular Devices LLC, San Jose, CA, USA).

Molecule	MIC / activity against E. coli ([1]; medium not given)	Inhibition of Cf-ARV-1502 binding to the 70S ribosome (in words) [2]	In Vitro Translation (%) [3] [%]	Reduction of GFP expression, 50 µmol/L peptide [3]	MIC (µg/mL), Table 3 ([1]; BW25113, 4 h) [µg/mL]	Minimal Inhibitory Concentration, 25% MHB2, wt [1] [µg/mL]	Minimal Inhibitory Concentration, 33% TSB, wt [1]	Ribosome Binding (%) [2] [%]	MIC / activity against E. coli ([1]; BW25113, 4 h) [µg/mL]
6: Chex-RPDDPRPYLPRPRPPRPVR-NH2 ([Ac6c]RPDDPRPYLPRPRPPRPVR-NH2; N-terminus assumed; SMILES CC(C)C[C@H](NC(=O)[C@H](Cc1ccc(O)cc1)NC(=O)[C@@H]1CCCN1C(=O)[C@H](CCCNC(=N)N)NC(=O)[C@@H]1CCCN1C(=O)[C@H](CC(=O)O)NC(=O)[C@H](CC(=O)O)NC(=O)[C@@H]1CCCN1C(=O)[C@H](CCCNC(=N)N)NC(=O)C1(N)CCCCC1)C(=O)N1CCC[C@H]1C(=O)N[C@@H](CCCNC(=N)N)C(=O)N1CCC[C@H]1C(=O)N[C@@H](CCCNC(=N)N)C(=O)N1CCC[C@H]1C(=O)N1CCC[C@H]1C(=O)N[C@@H](CCCNC(=N)N)C(=O)N1CCC[C@H]1C(=O)N[C@H](C(=O)N[C@@H](CCCNC(=N)N)C(N)=O)C(C)C) [Peptide 6]	low activity against E. coli	inhibited Cf-ARV-1502	–	–	–	–	–	–	–
CC(C)[C@H](NC(=O)[C@@H]1CCCN1C(=O)[C@H](CCCNC(=N)N)NC(=O)[C@@H]1CCCN1C(=O)[C@@H]1CCCN1C(=O)[C@H](CCCNC(=N)N)NC(=O)[C@@H]1CCCN1C(=O)[C@H](CCCNC(=N)N)NC(=O)[C@@H]1CCCN1C(=O)[C@H](CCCCN)NC(=O)[C@H](Cc1ccc(O)cc1)NC(=O)[C@@H]1CCCN1C(=O)[C@H](CCCNC(=N)N)NC(=O)[C@@H]1CCCN1C(=O)[C@H](CCCCN)NC(=O)[C@H](CCCCN)NC(=O)[C@@H]1CCCN1C(=O)[C@H](CCCNC(=N)N)NC(=O)C1(N)CCCCC1)C(=O)N[C@@H](CCCNC(=N)N)C(N)=O [Peptide 37] (H-[Ac6c]RPKKPRPYKPRPRPPRPVR-NH2; N-terminus and C-terminus assumed)	–	–	63.4 ± 13.3	~ 40%	16 (≈ 6.39 µM)	16	64 µg/mL	56.7 ± 2.6	–
CC(C)C[C@H](NC(=O)[C@H](Cc1ccc(O)cc1)NC(=O)[C@@H]1CCCN1C(=O)[C@H](CCCNC(=N)N)NC(=O)[C@@H]1CCCN1C(=O)[C@H](CCCCN)NC(=O)[C@H](CCCCN)NC(=O)[C@@H]1CCCN1C(=O)[C@H](CCCNC(=N)N)NC(=O)C1(N)CCCCC1)C(=O)N1CCC[C@H]1C(=O)N[C@@H](Cc1ccccc1)C(=O)N1CCC[C@H]1C(=O)N[C@@H](CCCNC(=N)N)C(=O)N1CCC[C@H]1C(=O)N1CCC[C@H]1C(=O)N[C@@H](CCCNC(=N)N)C(=O)N1CCC[C@H]1C(=O)N[C@H](C(=O)N[C@@H](CCCNC(=N)N)C(N)=O)C(C)C [Peptide 46] (H-[Ac6c]RPKKPRPYLPFPRPPRPVR-NH2; N-terminus and C-terminus assumed)	–	–	96.6 ± 3.1	did not inhibit GFP expression	–	16	64 * µg/mL	87.1 ± 3.4	16 (≈ 6.45 µM)
CC(C)C[C@H](NC(=O)[C@H](Cc1ccc(O)cc1)NC(=O)[C@@H]1CCCN1C(=O)[C@H](CCCNC(=N)N)NC(=O)[C@@H]1CCCN1C(=O)[C@H](Cc1ccccc1)NC(=O)[C@H](Cc1ccccc1)NC(=O)[C@@H]1CCCN1C(=O)[C@H](CCCNC(=N)N)NC(=O)C1(N)CCCCC1)C(=O)N[C@@H](CCCCN)C(=O)N[C@@H](CCCNC(=N)N)C(=O)N1CCC[C@H]1C(=O)N[C@@H](CCCNC(=N)N)C(=O)N1CCC[C@H]1C(=O)N1CCC[C@H]1C(=O)N[C@@H](CCCNC(=N)N)C(=O)N1CCC[C@H]1C(=O)N[C@H](C(=O)N[C@@H](CCCNC(=N)N)C(N)=O)C(C)C [Peptide 98] (H-[Ac6c]RPFFPRPYLKRPRPPRPVR-NH2; N-terminus and C-terminus assumed)	–	poor competitor of Cf-ARV-1502	56.2 ± 2.1	–	8 to 16	8 to 16	32 µg/mL	98.3 ± 1.5	–
CC(C)[C@H](NC(=O)[C@@H]1CCCN1C(=O)[C@H](CCCNC(=N)N)NC(=O)[C@@H]1CCCN1C(=O)[C@@H]1CCCN1C(=O)[C@H](CCCNC(=N)N)NC(=O)[C@@H]1CCCN1C(=O)[C@H](CCCNC(=N)N)NC(=O)[C@@H]1CCCN1C(=O)[C@H](CCCCN)NC(=O)[C@H](CO)NC(=O)[C@@H]1CCCN1C(=O)[C@H](CCCNC(=N)N)NC(=O)[C@@H]1CCCN1C(=O)[C@H](CCCCN)NC(=O)[C@H](CC(=O)O)NC(=O)[C@@H]1CCCN1C(=O)[C@H](CCCNC(=N)N)NC(=O)C1(N)CCCCC1)C(=O)N[C@@H](CCCNC(=N)N)C(N)=O [Peptide 125] (H-[Ac6c]RPDKPRPSKPRPRPPRPVR-NH2; N-terminus and C-terminus assumed)	–	–	104.3 ± 9.3	slightly improved GFP translation	128 (≈ 53 µM)	128	–	86.3 ± 2.5	–
